Columns and labels:
[1] = test system: PC3-mice; experiment: Organ clearance biological half-lives from biodistribution data; format: in vivo, mouse; conditions: PC3-mice, One-Phase Decay Model
Experimental: Blood samples were collected from the facial vein at 1, 3, 5, 7, 10, 15, 20, 30, 45, 60, 240, and 1440 min p.i., weighed, and measured for radioactivity using a γ-counter. Results were expressed as % I.A./g of blood and plotted over time. The initial and terminal half-lives were determined using Two-Phase Decay Model. The biological half-lives of selected organs were calculated from the biodistribution data using One-Phase Decay Model (GraphPad Prism 8).

[2] = test system: PC3-mice; experiment: Biodistribution in PC3-mice incl. blocking; format: in vivo, mouse; conditions: PC3-mice
Experimental: Male athymic Balb/C nude mice (6 weeks/20–25 g) were implanted with PC3 cells (3.5 × 10^6/100 µL PBS) into their right shoulder to develop tumors. The animals were used for biodistribution and PET/SPECT/CT imaging studies, once tumors reached 250–300 mm^3.
All mice were euthanized with intraperitoneal injection of pentobarbital (150 mg/kg), and selected organs were dissected, weighed, and measured for radioactivity using a gamma-counter. Results are expressed as % injected activity per gram tissue (% I.A./g), presented as mean ± SD (n = 3–4).

[3] = test system: FAP+ CAFs; experiment: Externalization from CAFs; format: cell-based, human; conditions: after 24 h at 37 °C
Experimental: For receptor saturation studies, FAP^+ CAFs were incubated with 0.1 to 10 nM of the radioligands. For internalization studies, approximately 2.5 pmol of the radioligands were added to CAFs followed by incubation for 15, 30, 60, 90, 120, 180 and 240 min for the ^68Ga-labeled or 30, 60, 120, 240 and 360 min for the ^177Lu-labeled radioligands at 37 °C, 5% CO2. For the externalization studies, approximately 2.5 pmol of the ^177Lu-labeled radioligands were added to CAFs followed by incubation for 2 h at 37 °C, 5% CO2. The amount of externalized activity was measured at 0, 10, 20, 30, 60, 120, 240, and 1440 min (Supplemental Data).
After the completion of the 2 hours of incubation, the medium was removed and CAF cells were washed with 1 mL of cold PBS (x2). The cells were then exposed to an acid wash with glycine buffer, as described above, to dissociate membrane-bound radioligand, and the fractions were collected. Fresh medium (1 mL/well) was added to the cells and were incubated at 37 °C. At different time points (10, 20, 30, 60, 120, 240 and 1440 minutes) the external medium was removed (followed by two washing steps with cold PBS). […] The radioactivity of the culture medium, the membrane-bound, the internalized and the externalized fractions were measured in a gamma-counter. The externalized fraction of radioactivity was expressed as the percentage of the total internalized amount.

[4] = Blocking 4h (20 nmol unlabeled precursor)

N#C[C@@H]1CC(F)(F)CN1C(=O)CNC(=O)c1ccnc2ccc(OCCCCNC(=O)CC[C@H](NC(=O)CN3CCN(CC(=O)[O-])CCN(CC(=O)[O-])CCN(CC(=O)[O-])CC3)C(=O)NCCCCOc3ccc4nccc(C(=O)NCC(=O)N5CC(F)(F)C[C@H]5C#N)c4c3)cc12.[177Lu+3] [[^177Lu]Lu-DO3A.Glu.(FAPI)2]
Bone clearance half-life, 95% confidence interval [1]: 14.85 to 18.53 h
Kidney clearance half-life, 95% confidence interval [1]: 18.73 to 31.89 h
Liver clearance half-life, 95% confidence interval [1]: 51.46 to 92.13 h
Pancreas clearance half-life, 95% confidence interval [1]: 12.66 to 19.50 h
Salivary glands clearance half-life, 95% confidence interval [1]: 13.95 to 20.7 h
Tumor clearance half-life, 95% confidence interval [1]: 17.58 to 22.85 h
Uptake in Adrenal ([2]; 4 h p.i.): 3.7±1 %I.A./g
Uptake in Blood ([2]; 4 h p.i.): 2.3±0.3 %I.A./g
Uptake in Bone ([2]; 4 h p.i.): 5.2±0.2 %I.A./g
Uptake in Heart ([2]; 4 h p.i.): 1.2±0.5 %I.A./g
Uptake in Intestine ([2]; 4 h p.i.): 0.9±0.4 %I.A./g
Uptake in Kidney ([2]; 4 h p.i.): 1.5±0.4 %I.A./g
Uptake in Liver ([2]; 4 h p.i.): 1.7±0.1 %I.A./g
Uptake in Lung ([2]; 4 h p.i.): 1.6±0.02 %I.A./g
Uptake in Muscle ([2]; 4 h p.i.): 1.9±0.3 %I.A./g
Uptake in Pancreas ([2]; 4 h p.i.): 2.3±0.4 %I.A./g
Uptake in Salivary glands ([2]; 4 h p.i.): 8.2±1.3 %I.A./g
Uptake in Spleen ([2]; 4 h p.i.): 1.2±0.1 %I.A./g
Uptake in Stomach ([2]; 4 h p.i.): 0.9±0.2 %I.A./g
Uptake in Tumor ([2]; 4 h p.i.): 15±1.3 %I.A./g
Uptake in Adrenal ([2]; 24 h p.i.): 1.5±0.2 %I.A./g
Uptake in Blood ([2]; 24 h p.i.): 0.9±0.1 %I.A./g
Uptake in Bone ([2]; 24 h p.i.): 2±0.1 %I.A./g
Uptake in Gallbladder ([2]; 24 h p.i.): 1.3±0.03 %I.A./g
Uptake in Heart ([2]; 24 h p.i.): 0.4±0.03 %I.A./g
Uptake in Intestine ([2]; 24 h p.i.): 0.4±0.1 %I.A./g
Uptake in Kidney ([2]; 24 h p.i.): 0.9±0.1 %I.A./g
Uptake in Liver ([2]; 24 h p.i.): 1.7±0.2 %I.A./g
Uptake in Lung ([2]; 24 h p.i.): 0.6±0.03 %I.A./g
Uptake in Muscle ([2]; 24 h p.i.): 1±0.1 %I.A./g
Uptake in Pancreas ([2]; 24 h p.i.): 1±0.05 %I.A./g
Uptake in Salivary glands ([2]; 24 h p.i.): 3.9±0.3 %I.A./g
Uptake in Spleen ([2]; 24 h p.i.): 0.8±0.05 %I.A./g
Uptake in Stomach ([2]; 24 h p.i.): 0.4±0.03 %I.A./g
Uptake in Tumor ([2]; 24 h p.i.): 7.5±1.2 %I.A./g
Uptake in Adrenal ([2]; 48 h p.i.): 1.1±0.5 %I.A./g
Uptake in Blood ([2]; 48 h p.i.): 0.2±0.03 %I.A./g
Uptake in Bone ([2]; 48 h p.i.): 1±0.1 %I.A./g
Uptake in Gallbladder ([2]; 48 h p.i.): 0.6±0.1 %I.A./g
Uptake in Heart ([2]; 48 h p.i.): 0.1±0.01 %I.A./g
Uptake in Intestine ([2]; 48 h p.i.): 0.1±0.04 %I.A./g
Uptake in Kidney ([2]; 48 h p.i.): 0.4±0.1 %I.A./g
Uptake in Liver ([2]; 48 h p.i.): 1.1±0.2 %I.A./g
Uptake in Lung ([2]; 48 h p.i.): 0.2±0.1 %I.A./g
Uptake in Muscle ([2]; 48 h p.i.): 0.4±0.04 %I.A./g
Uptake in Pancreas ([2]; 48 h p.i.): 0.3±0.01 %I.A./g
Uptake in Salivary glands ([2]; 48 h p.i.): 1.1±0.3 %I.A./g
Uptake in Spleen ([2]; 48 h p.i.): 0.5±0.05 %I.A./g
Uptake in Stomach ([2]; 48 h p.i.): 0.2±0.05 %I.A./g
Uptake in Tumor ([2]; 48 h p.i.): 3.1 ± 0.5 %I.A./g
Uptake in Adrenal ([2]; 72 h p.i.): 0.3±0.1 %I.A./g
Uptake in Blood ([2]; 72 h p.i.): 0.06±0 %I.A./g
Uptake in Bone ([2]; 72 h p.i.): 0.4±0.005 %I.A./g
Uptake in Gallbladder ([2]; 72 h p.i.): 0.4±0.2 %I.A./g
Uptake in Heart ([2]; 72 h p.i.): 0.04±0.01 %I.A./g
Uptake in Intestine ([2]; 72 h p.i.): 0.05±0.01 %I.A./g
Uptake in Kidney ([2]; 72 h p.i.): 0.2±0.02 %I.A./g
Uptake in Liver ([2]; 72 h p.i.): 0.8±0.1 %I.A./g
Uptake in Lung ([2]; 72 h p.i.): 0.1±0.01 %I.A./g
Uptake in Muscle ([2]; 72 h p.i.): 0.1±0.01 %I.A./g
Uptake in Pancreas ([2]; 72 h p.i.): 0.1±0.02 %I.A./g
Uptake in Salivary glands ([2]; 72 h p.i.): 0.3±0.1 %I.A./g
Uptake in Spleen ([2]; 72 h p.i.): 0.3±0.04 %I.A./g
Uptake in Stomach ([2]; 72 h p.i.): 0.05±0 %I.A./g
Uptake in Tumor ([2]; 72 h p.i.): 1.4±0.1 %I.A./g
Uptake in Adrenal ([2]; 96 h p.i.): 0.2±0.1 %I.A./g
Uptake in Blood ([2]; 96 h p.i.): 0.02±0.01 %I.A./g
Uptake in Bone ([2]; 96 h p.i.): 0.3±0.1 %I.A./g
Uptake in Gallbladder ([2]; 96 h p.i.): 0.1±0.02 %I.A./g
Uptake in Heart ([2]; 96 h p.i.): 0.02±0.01 %I.A./g
Uptake in Intestine ([2]; 96 h p.i.): 0.02±0.01 %I.A./g
Uptake in Kidney ([2]; 96 h p.i.): 0.1±0.01 %I.A./g
Uptake in Liver ([2]; 96 h p.i.): 0.7±0.1 %I.A./g
Uptake in Lung ([2]; 96 h p.i.): 0.1±0.1 %I.A./g
Uptake in Muscle ([2]; 96 h p.i.): 0.04±0 %I.A./g
Uptake in Pancreas ([2]; 96 h p.i.): 0.03±0.01 %I.A./g
Uptake in Salivary glands ([2]; 96 h p.i.): 0.1±0.03 %I.A./g
Uptake in Spleen ([2]; 96 h p.i.): 0.4±0.05 %I.A./g
Uptake in Stomach ([2]; 96 h p.i.): 0.03±0.01 %I.A./g
Uptake in Tumor ([2]; 96 h p.i.): 1±0.03 %I.A./g
Uptake in Adrenal [2, 4]: 0.3±0.04 %I.A./g
Uptake in Blood [2, 4]: 0.2±0.04 %I.A./g
Uptake in Bone [2, 4]: 0.4±0.1 %I.A./g
Uptake in Heart [2, 4]: 0.1±0.01 %I.A./g
Uptake in Intestine [2, 4]: 0.4±0.02 %I.A./g
Uptake in Kidney [2, 4]: 2.8±0.2 %I.A./g
Uptake in Liver [2, 4]: 1.1±0.01 %I.A./g
Uptake in Lung [2, 4]: 0.5±0.1 %I.A./g
Uptake in Muscle [2, 4]: 0.1±0.01 %I.A./g
Uptake in Pancreas [2, 4]: 0.1±0.01 %I.A./g
Uptake in Salivary glands [2, 4]: 0.3±0.01 %I.A./g
Uptake in Spleen [2, 4]: 0.4±0.03 %I.A./g
Uptake in Stomach [2, 4]: 0.2±0.1 %I.A./g
Uptake in Tumor [2, 4]: 1.1±0.4 %I.A./g
tumor uptake ([2]; at 1 h p.i. as printed): ~ 15 %I.A./g
drop of tumor uptake (washed-out) ([2]; at 24 h vs 4 h p.i.): ~ 50%
initially internalized activity released [3]: ~ 46%

Source: paper PMC12860872, “Preclinical evaluation of DOTAGA.Glu.(FAPI)2 and DO3A.Glu.(FAPI)2 as theranostics with human dosimetry extrapolation to lutetium-177 and terbium-161 analogs” (European Journal of Nuclear Medicine and Molecular Imaging, 2025)
